Assay results reported in ChEMBL document CHEMBL4665642, “Anticancer profile of newly synthesized BRAF inhibitors possess 5-(pyrimidin-4-yl)imidazo[2,1-b]thiazole scaffold” (Bioorg Med Chem, 2019).

Experiments:
Format in all cases: functional
Conditions in all cases: read-out: Activity
[1] = system: MDA-MB-468; test: Cytotoxicity against human MDA-MB-468 cells assessed as cell viability at 10 uM incubated for 48 hrs by sulforhodamine B assay relative to control
[2] = system: T47D; test: Cytotoxicity against human T47D cells assessed as cell viability at 10 uM incubated for 48 hrs by sulforhodamine B assay relative to control
[3] = system: BT-549; test: Cytotoxicity against human BT-549 cells assessed as cell viability at 10 uM incubated for 48 hrs by sulforhodamine B assay relative to control
[4] = system: Hs-578T; test: Cytotoxicity against human HS-578T cells assessed as cell viability at 10 uM incubated for 48 hrs by sulforhodamine B assay relative to control
[5] = system: MDA-MB-231; test: Cytotoxicity against human MDA-MB-231 cells assessed as cell viability at 10 uM incubated for 48 hrs by sulforhodamine B assay relative to control
[6] = system: DU-145; test: Cytotoxicity against human DU-145 cells assessed as cell viability at 10 uM incubated for 48 hrs by sulforhodamine B assay relative to control
[7] = system: UO-31; test: Cytotoxicity against human UO-31 cells assessed as cell viability at 10 uM incubated for 48 hrs by sulforhodamine B assay relative to control
[8] = system: TK-10; test: Cytotoxicity against human TK-10 cells assessed as cell viability at 10 uM incubated for 48 hrs by sulforhodamine B assay relative to control
[9] = system: ACHN; test: Cytotoxicity against human ACHN cells assessed as cell viability at 10 uM incubated for 48 hrs by sulforhodamine B assay relative to control
[10] = system: 786-0; test: Cytotoxicity against human 786-0 cells assessed as cell viability at 10 uM incubated for 48 hrs by sulforhodamine B assay relative to control
[11] = system: SK-OV-3; test: Cytotoxicity against human SK-OV-3 cells assessed as cell viability at 10 uM incubated for 48 hrs by sulforhodamine B assay relative to control
[12] = system: NCI/ADR-RES; test: Cytotoxicity against human NCI/ADR-RES cells assessed as cell viability at 10 uM incubated for 48 hrs by sulforhodamine B assay relative to control
[13] = system: OVCAR-8; test: Cytotoxicity against human OVCAR-8 cells assessed as cell viability at 10 uM incubated for 48 hrs by sulforhodamine B assay relative to control
[14] = system: OVCAR-5; test: Cytotoxicity against human OVCAR-5 cells assessed as cell viability at 10 uM incubated for 48 hrs by sulforhodamine B assay relative to control
[15] = system: IGROV-1; test: Cytotoxicity against human IGROV-1 cells assessed as cell viability at 10 uM incubated for 48 hrs by sulforhodamine B assay relative to control
[16] = system: UACC-257; test: Cytotoxicity against human UACC-257 cells assessed as cell viability at 10 uM incubated for 48 hrs by sulforhodamine B assay relative to control
[17] = system: SK-MEL-5; test: Cytotoxicity against human SK-MEL-5 cells assessed as cell viability at 10 uM incubated for 48 hrs by sulforhodamine B assay relative to control
[18] = system: SK-MEL-2; test: Cytotoxicity against human SK-MEL-2 cells assessed as cell viability at 10 uM incubated for 48 hrs by sulforhodamine B assay relative to control
[19] = system: MDA-MB-435; test: Cytotoxicity against human MDA-MB-435 cells assessed as cell viability at 10 uM incubated for 48 hrs by sulforhodamine B assay relative to control
[20] = system: M14; test: Cytotoxicity against human M14 cells assessed as cell viability at 10 uM incubated for 48 hrs by sulforhodamine B assay relative to control
[21] = system: Malme-3M; test: Cytotoxicity against human Malme-3M cells assessed as cell viability at 10 uM incubated for 48 hrs by sulforhodamine B assay relative to control
[22] = system: CCRF-CEM; test: Cytotoxicity against human CCRF-CEM cells assessed as cell viability at 10 uM incubated for 48 hrs by sulforhodamine B assay relative to control
[23] = system: HL-60(TB); test: Cytotoxicity against human HL-60(TB) cells assessed as cell viability at 10 uM incubated for 48 hrs by sulforhodamine B assay relative to control
[24] = system: K562; test: Cytotoxicity against human K562 cells assessed as cell viability at 10 uM incubated for 48 hrs by sulforhodamine B assay relative to control
[25] = system: RPMI-8226; test: Cytotoxicity against human RPMI-8226 cells assessed as cell viability at 10 uM incubated for 48 hrs by sulforhodamine B assay relative to control
[26] = system: SR; test: Cytotoxicity against human SR cells assessed as cell viability at 10 uM incubated for 48 hrs by sulforhodamine B assay relative to control
[27] = system: A549; test: Cytotoxicity against human A549 cells assessed as cell viability at 10 uM incubated for 48 hrs by sulforhodamine B assay relative to control
[28] = system: NCI-H226; test: Cytotoxicity against human NCI-H226 cells assessed as cell viability at 10 uM incubated for 48 hrs by sulforhodamine B assay relative to control
[29] = system: NCI-H23; test: Cytotoxicity against human NCI-H23 cells assessed as cell viability at 10 uM incubated for 48 hrs by sulforhodamine B assay relative to control
[30] = system: NCI-H322M; test: Cytotoxicity against human NCI-H322M cells assessed as cell viability at 10 uM incubated for 48 hrs by sulforhodamine B assay relative to control
[31] = system: NCI-H460; test: Cytotoxicity against human NCI-H460 cells assessed as cell viability at 10 uM incubated for 48 hrs by sulforhodamine B assay relative to control
[32] = system: COLO 205; test: Cytotoxicity against human COLO 205 cells assessed as cell viability at 10 uM incubated for 48 hrs by sulforhodamine B assay relative to control
[33] = system: HCC 2998; test: Cytotoxicity against human HCC 2998 cells assessed as cell viability at 10 uM incubated for 48 hrs by sulforhodamine B assay relative to control
[34] = system: HCT-15; test: Cytotoxicity against human HCT-15 cells assessed as cell viability at 10 uM incubated for 48 hrs by sulforhodamine B assay relative to control
[35] = system: SW-620; test: Cytotoxicity against human SW-620 cells assessed as cell viability at 10 uM incubated for 48 hrs by sulforhodamine B assay relative to control
[36] = system: SF-268; test: Cytotoxicity against human SF-268 cells assessed as cell viability at 10 uM incubated for 48 hrs by sulforhodamine B assay relative to control
[37] = system: SF-295; test: Cytotoxicity against human SF-295 cells assessed as cell viability at 10 uM incubated for 48 hrs by sulforhodamine B assay relative to control
[38] = system: SF-539; test: Cytotoxicity against human SF-539 cells assessed as cell viability at 10 uM incubated for 48 hrs by sulforhodamine B assay relative to control
[39] = system: SNB-75; test: Cytotoxicity against human SNB-75 cells assessed as cell viability at 10 uM incubated for 48 hrs by sulforhodamine B assay relative to control
[40] = system: U-251; test: Cytotoxicity against human U-251 cells assessed as cell viability at 10 uM incubated for 48 hrs by sulforhodamine B assay relative to control

| SMILES | viability at 10 µM [1] [%] | viability at 10 µM [2] [%] | viability at 10 µM [3] [%] | viability at 10 µM [4] [%] | viability at 10 µM [5] [%] | viability at 10 µM [6] [%] | viability at 10 µM [7] [%] | viability at 10 µM [8] [%] | viability at 10 µM [9] [%] | viability at 10 µM [10] [%] | viability at 10 µM [11] [%] | viability at 10 µM [12] [%] | viability at 10 µM [13] [%] | viability at 10 µM [14] [%] | viability at 10 µM [15] [%] | viability at 10 µM [16] [%] | viability at 10 µM [17] [%] | viability at 10 µM [18] [%] | viability at 10 µM [19] [%] | viability at 10 µM [20] [%] | further results |
| --- | --- | --- | --- | --- | --- | --- | --- | --- | --- | --- | --- | --- | --- | --- | --- | --- | --- | --- | --- | --- | --- |
| Cc1ccc(S(=O)(=O)NCCCNc2nccc(-c3c(-c4cccc(F)c4)nc4sccn34)n2)cc1 | 78.2 | 34.5 | 84.5 | 84.3 | 84.5 | 77 | 33.8 | 99.4 | 65.5 | 78.4 | 75.2 | 79.7 | 60.3 | 111 | 37.8 | 121 | 57.3 | 86.1 | 48.8 | 80.7 | viability at 10 µM [21]: 116%; viability at 10 µM [22]: 62.7%; viability at 10 µM [23]: 119%; viability at 10 µM [24]: 52%; viability at 10 µM [25]: 68.2%; viability at 10 µM [26]: 102%; viability at 10 µM [27]: 73%; viability at 10 µM [28]: 53.7%; viability at 10 µM [29]: 96.2%; viability at 10 µM [30]: 89.6%; viability at 10 µM [31]: 65.1%; viability at 10 µM [32]: 55.5%; viability at 10 µM [33]: 98.2%; viability at 10 µM [34]: 47.1%; viability at 10 µM [35]: 79.4%; viability at 10 µM [36]: 65.9%; viability at 10 µM [37]: 84.1%; viability at 10 µM [38]: 95.3%; viability at 10 µM [39]: 98.7%; viability at 10 µM [40]: 82.2% |
| O=C(NCCNc1nccc(-c2c(-c3cccc(F)c3)nc3sccn23)n1)c1ccc(C(F)(F)F)cc1 | 77.6 | 43 | 78.9 | 85.2 | 74.7 | 83.7 | 34.5 | 86.1 | 42.6 | 65.7 | 70.2 | 73.1 | 54.8 | 93.5 | 27.8 | 96.8 | 56.6 | 69 | 47.7 | 59.4 | viability at 10 µM [21]: 55.7%; viability at 10 µM [22]: 53.5%; viability at 10 µM [23]: 103%; viability at 10 µM [24]: 61.8%; viability at 10 µM [25]: 52.7%; viability at 10 µM [26]: 68.9%; viability at 10 µM [27]: 62.1%; viability at 10 µM [28]: 64.8%; viability at 10 µM [29]: 80%; viability at 10 µM [30]: 81.8%; viability at 10 µM [31]: 73.2%; viability at 10 µM [32]: 32.7%; viability at 10 µM [33]: 100%; viability at 10 µM [34]: 53.1%; viability at 10 µM [35]: 79%; viability at 10 µM [36]: 64.9%; viability at 10 µM [37]: 74.4%; viability at 10 µM [38]: 95.7%; viability at 10 µM [39]: 73.7%; viability at 10 µM [40]: 77% |
